1 compound from patent publication US8420605B2, “Hydrogel compositions” (The University of Strathclyde, priority 2005, dated 2013) can be followed below.

Series [1] is described as follows: Preparation of self-assembled peptide hydrogels by pH adjustment (gel formation). The class given is physicochemical. As for the experimental part: Fmoc peptides (from BACHEM Ltd) were weighed out into 4 ml glass vials. 2 ml purified water was added followed by sonication for 30-60 seconds. 0.5M NaOH solution was added in 50 μl droplets until a clear solution was formed. 0.1M HCl was added to the solution by stepwise addition of 50 μl followed by mixing using a vortex. pH values were estimated by transferring a spatula tip of hydrogel onto universal indicator paper.
Self-assembled scaffolds were prepared by first suspending the Fmoc-dipeptide in purified water. Upon increase of the pH by addition of concentrated NaOH (thus de-protonating the carboxylic acid group) to a value of >8, a clear solution was obtained. To this solution, concentrated hydrochloric acid was added drop wise until the pH of the solution became 7, at which point a clear, self-supporting gel was formed.
Table 3 below identifies various peptide derivatives (incorporating an aromatic stacking ligand) and mixtures thereof that formed gels at a pH of 6-8 at the indicated concentrations: […]

For series [2], the system named is Human mesenchymal stem cells (MSCs). Put plainly: PCR gene expression of cells cultured in gels for 14 days. It counts as cell-based. The settings on record: after 14 days. As for the experimental part: Human mesenchymal stem cells (MSCs) were isolated from bone marrow taken from patients (with both patient and ethical consent) undergoing hip replacement surgery.A HISTOPAQUE (SIGMA-ALDRICH) gradient was used to isolate mononuclear cells and these cells were cultured in monolayer with α-MEM (with 10% heat-inactivated foetal calf serum, 100 U/ml streptomycin/penicillin and 0.85 mM ascorbic acid) under standard culture conditions (humidified atmostphere, 37° C., 5% CO2). After 5 days non-adherent cells were removed by washing with media.
At 80% confluence in passage 3 the MSCs were trypsinised and a cell count was performed. A suitable number of cells were centrifuged at 400 g for 5 minutes and then resuspended in a 10 mM Fmoc-Phe-Phe solution to a final concentration of 4×10^6 cells/ml. The cell suspension was mixed to ensure even cell distribution and 200 μl layers were pipetted into high pore density (0.4 μm pore size) cell culture inserts in 24-well plates. Media (α-MEM as previously described) was added gently to both the well and the insert and gels were allowed to polymerise.
The cell-seeded gels were then cultured under standard conditions for 14 days with media changed every 2 days. Following culture 1 ml of TRIZOL was added to each insert and the gels disrupted by pipetting. A modified RNA extraction procedure was performed combining both the TRIZOL and PURELINK (INVITROGEN) extraction procedures. RNA was reverse transcribed to cDNA using SUPERSCRIPT II (INVITROGEN) and PCR performed using a standard HOTSTARTAQ (QIAGEN) procedure for the house-keeping gene GAPDH as well as the transcription factor SOX-9, aggrecan and collagen types I and II.
PCR products were run on a 1.5% agarose gel containing ethidium bromide and visualised on a UV-transilluminator.

Series [3] concerns Human dermal fibroblasts. As to the kind of experiment: Cell phenotype and size comparison in RGD/RGE-containing hydrogels (inverted optic microscope). The settings on record: after 24 hours, 3D culture, 1 mM/L RGD or RGE peptide with Fmoc-Phe-Phe-OH. The class given is cell-based. As to the method: Fmoc-SEQ. ID. NO. 1-OH (Fmoc-SEQ. ID. NO. 1) adhesion motifs were introduced to tackle the issue of un-spreaded cells in Fmoc-Phe-Phe-OH gels therefore to induce spreading and focal adhesion of dermal fibroblasts in these self-assembled peptide hydrogels. Fmoc-Phe-Phe-OH and Fmoc-Phe-Phe-OH+Fmoc-SEQ. ID. NO. 2-OH (Fmoc-SEQ. ID. NO. 2) combination were set as comparisons.
0.0014 grams of Fmoc-SEQ. ID. NO. 1or Fmoc-SEQ. ID. NO. 2(1 mM/L in later hydrogels), were weighed and mixed with 0.0107 grams Fmoc-Phe-Phe-OH respectively into glass vials, and 0.0107 grams Fmoc-Phe-Phe-OH alone was weighed as well. The above peptide and peptide mixtures were sterilized for 30 minutes by an ultraviolet light exposure with bottles of distilled water, filtered NaOH (Sodium Hydroxide, 0.5 M/L), filtered HCl (Hydrochloric Acid, 0.5 M/L), and relevant apparatus (spatulas, pipettes, Vortex). 2 mL of the sterile distilled water was then added into each glass vial of Fmoc-Phe-Phe-OH, Fmoc-Phe-Phe-OH+Fmoc-SEQ. ID. NO. 1, and Fmoc-Phe-Phe-OH+Fmoc-SEQ. ID. NO. 2, and the mixtures were vortexed for a few seconds to create suspensions. […] The basic peptide solutions (pH around 10) were finally neutralized to pH 7 by dropwise addition of HCl and pH values were monitored by a pH meter with a micro-probe. […]

Peptide text beside a SMILES is read from it. * marks the point of attachment. Fmoc = O=C(OCC1c2ccccc2-c2ccccc21)*

For `O=C(N[C@@H](Cc1ccccc1)C(=O)N[C@@H](Cc1ccccc1)C(=O)O)OCC1c2ccccc2-c2ccccc21` [Entry 1, Fmoc-Phe-Phe-OH] (Fmoc-Phe-Phe-OH), in series [1] (Component 1 10 mM/L, pH 7), the “Gel?” value was “✓”. In series [1] (Properties of self-assembled Fmoc-dipeptides (Table 1), concentration range of gel), the “Concentration” value is 2900 to 30000 µM. In series [1] (Properties of self-assembled Fmoc-dipeptides (Table 1), pH range of gel), the pH was 4-8. This compound had a pH in series [1] (pH at which the gel formed at the indicated concentrations (Table 3)) of 7. The “cell viability (from gene expression)” value in series [2] is “viable cells present”. In series [2] (10 mM gel), the “expression of GAPDH” value is “expression”, the “expression of SOX-9” value is given as “lack of expression”, the expression of aggrecan entry was “lack of expression” and the “expression of type I collagen” value is “expression”. In series [2] (10 mM gel), the “expression of type II collagen” value was “lack of expression”. Further, the average cell size entry in series [3] is on record as “around 20 microns”.
